# In patent publication US12709596B2, “Molecules” (ENA Respiratory Pty Ltd, priority 2019, dated 2026):
# What was measured:
# [1] = Stability II: 9 day stability under accelerated conditions in EDTA/saline pH 5 by HPLC; assay type: physicochemical; conditions: 40° C./75% RH, 9 days
# Protocol: Stability was measured using reversed phase HPLC with a UV detector analytical wavelength of 205 nm. Peak areas of each compound at the 9 day time point were compared with areas at time zero. Compound stability at day 9 was calculated as a percentage of the time zero peak area data. Compound stability was further assessed by comparison with a reference sample of the same compound. […] Thawed samples were sonicated and measured by HPLC.
# [2] = target: T1, human TLR2 (hTLR2) (Homo sapiens, UniProt O60603); test: HEK-BLUE-hTLR2 cell assay (NF-kB induced SEAP, read at 620 nm); assay type: cell-based; conditions: HEK-BLUE-hTLR2 cells, 16 hr
# T1 construct: host or cells: HEK293 (HEK-BLUE-hTLR2)
# Protocol: The potency of the compounds as activators of human TLR-2s is tested in an in vitro assay in HEK-BLUE-hTLR2 cells.
# HEK-BLUE-hTLR2 cells are designed for studying the stimulation of human TLR2 (hTLR2) by monitoring the activation of NF-kB. HEK-BLUE-hTLR2 cells are obtained by co-transfection of the hTLR2 and SEAP (secreted embryonic alkaline phosphatase) reporter genes into HEK293 cells. Stimulation with a TLR2 ligand activates NF-kB which induces the production of SEAP.
# HEK-BLUE-hTLR2 cells were purchased from InvivoGen (San Diego, CA, USA). Cells were grown in DMEM supplemented with 10% FCS, 100 U/ml penicillin, 100 ug/ml streptomycin and 2 mM L-glutamine, 100 μg/mL Normocin in the presence of selection antibiotic purchased from InvivoGen and passaged when 70% confluence was reached per manufacturer's recommendation. […]
# T1 sequence (O60603 21-784): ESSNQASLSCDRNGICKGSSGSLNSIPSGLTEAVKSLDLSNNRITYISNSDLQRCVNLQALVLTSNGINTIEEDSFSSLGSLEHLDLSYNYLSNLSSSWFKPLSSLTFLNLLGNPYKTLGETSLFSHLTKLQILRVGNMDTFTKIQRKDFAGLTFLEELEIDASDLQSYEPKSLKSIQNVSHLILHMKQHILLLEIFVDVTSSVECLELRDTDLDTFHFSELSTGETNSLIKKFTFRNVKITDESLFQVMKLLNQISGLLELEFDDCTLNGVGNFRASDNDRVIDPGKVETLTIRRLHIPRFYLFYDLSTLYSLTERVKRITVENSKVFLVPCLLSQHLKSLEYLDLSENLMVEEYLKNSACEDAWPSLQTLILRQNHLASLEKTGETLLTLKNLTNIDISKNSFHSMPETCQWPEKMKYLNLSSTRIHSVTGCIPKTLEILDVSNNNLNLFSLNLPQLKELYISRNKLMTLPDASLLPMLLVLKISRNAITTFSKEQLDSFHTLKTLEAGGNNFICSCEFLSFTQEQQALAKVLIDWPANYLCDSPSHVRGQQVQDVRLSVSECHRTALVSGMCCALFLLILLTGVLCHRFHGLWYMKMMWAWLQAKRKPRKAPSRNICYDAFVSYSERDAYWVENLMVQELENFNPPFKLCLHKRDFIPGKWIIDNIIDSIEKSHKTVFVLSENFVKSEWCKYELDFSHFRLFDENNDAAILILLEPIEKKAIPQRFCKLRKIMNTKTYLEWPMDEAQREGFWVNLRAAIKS
# T1 sequence (Q9Y2C9 32-796 partner): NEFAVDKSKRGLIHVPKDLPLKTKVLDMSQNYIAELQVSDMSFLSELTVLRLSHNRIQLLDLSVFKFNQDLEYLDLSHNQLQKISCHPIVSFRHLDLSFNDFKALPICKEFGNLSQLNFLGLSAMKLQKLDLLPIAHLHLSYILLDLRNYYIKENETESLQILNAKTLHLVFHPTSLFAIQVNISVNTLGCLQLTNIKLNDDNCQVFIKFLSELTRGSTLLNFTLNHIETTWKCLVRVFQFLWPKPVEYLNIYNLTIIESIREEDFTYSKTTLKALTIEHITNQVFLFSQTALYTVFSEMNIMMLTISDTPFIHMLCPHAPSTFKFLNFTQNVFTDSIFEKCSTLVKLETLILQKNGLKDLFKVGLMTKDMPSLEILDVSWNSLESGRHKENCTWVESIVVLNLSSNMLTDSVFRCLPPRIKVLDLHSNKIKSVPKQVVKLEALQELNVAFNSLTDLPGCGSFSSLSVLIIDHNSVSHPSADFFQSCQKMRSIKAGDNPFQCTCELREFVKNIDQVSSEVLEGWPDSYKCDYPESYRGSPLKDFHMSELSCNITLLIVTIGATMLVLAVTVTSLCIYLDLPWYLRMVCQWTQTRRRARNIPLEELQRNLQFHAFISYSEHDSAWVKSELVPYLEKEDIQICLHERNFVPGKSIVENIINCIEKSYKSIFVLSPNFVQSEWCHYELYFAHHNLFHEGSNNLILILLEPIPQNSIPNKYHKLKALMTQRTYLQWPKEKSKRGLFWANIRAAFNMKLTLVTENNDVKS
smiles,measurement,setting,value
CCCCCCCCCCCCCCC(C)C(=O)OCC[C@H](CSC[C@H](N)C(=O)N[C@@H](CO)C(=O)NCCOCCOCCOCCOCCOCCOCCOCCOCCOCCOCCOCCOCCOCCOCCOCCOCCOCCOCCOCCOCCOCCOCCOCCOCCOCCOCCOCCOCCC(=O)NCC(N)=O)OC(=O)C(C)CCCCCCCCCCCCCC (stereo partly drawn) [Compound 36],stability over the 9 day test period,[1]; pH 5 EDTA/saline,substantial stability
same,stability under the accelerated conditions relative to comparator compound,[1]; versus compound (8) of WO2019/119067,superior stability
same,"TLR2 activity (HEK-BLUE-hTLR2 assay, FIG. 4)",[2],significant activity at TLR2
